Several values for one entry are separate records, joined by “and”; a condition that tells them apart may be missing. Equal values may be shown once.
Tested on: amphetamine-induced hyperactivity in rats
Test: amphetamine-induced hyperactivity model of mania in rats (automated activity monitors)
Format: in vivo, Sprague Dawley rats
Settings: for Effect on amphetamine-induced locomotor activity versus control (ANOVA) / Effect on amphetamine-induced vertical activity versus control (ANOVA) / Effect on activity levels of rats (summary): 75 mg/kg IP; for Effect on amphetamine-induced locomotor activity versus control (ANOVA) / Effect on amphetamine-induced vertical activity versus control (ANOVA) / Locomotor activity, 10 min: 19 h and 3 h before testing; for Effect on amphetamine-induced locomotor activity versus control (ANOVA) / Effect on amphetamine-induced vertical activity versus control (ANOVA) / Effect on activity levels of rats (summary) / Anti-manic potential from the tested model (conclusion): result in words; for Effect on activity levels of rats (summary): amphetamine-treated rats; for Anti-manic potential from the tested model (conclusion): based on the tested model and doses; for Locomotor activity, 20 min, mean / Vertical activity, 20 min, mean / Locomotor activity, 30 min, mean / Vertical activity, 30 min, mean / Locomotor activity, 10 min, mean / Vertical activity, 10 min, mean / Locomotor activity, 20-10 min, mean / Vertical activity, 20-10 min, mean / Locomotor activity, 30-20 min, mean / Vertical activity, 30-20 min, mean: group mean n=10; for Locomotor activity, 20 min, mean / Vertical activity, 20 min, mean / Locomotor activity, 30 min, mean / Vertical activity, 30 min, mean / Locomotor activity, 10 min, mean / Vertical activity, 10 min, mean / Locomotor activity, 20-10 min, mean / Vertical activity, 20-10 min, mean / Locomotor activity, 30-20 min, mean / Vertical activity, 30-20 min, mean / Locomotor activity, 10 min / Locomotor activity, 20 min / Vertical activity, 20 min / Locomotor activity, 30 min / Vertical activity, 30 min / Vertical activity, 10 min / Locomotor activity, 20-10 min / Vertical activity, 20-10 min / Locomotor activity, 30-20 min / Vertical activity, 30-20 min: 75 mg/kg IP twice, amphetamine 0.5 mg/kg s.c.; for Locomotor activity, 20 min, mean / Vertical activity, 20 min, mean / Locomotor activity, 20 min / Vertical activity, 20 min: cumulative to 20 min; for Locomotor activity, 30 min, mean / Vertical activity, 30 min, mean / Locomotor activity, 30 min / Vertical activity, 30 min: cumulative to 30 min; for Locomotor activity, 10 min, mean / Vertical activity, 10 min, mean / Locomotor activity, 10 min / Vertical activity, 10 min: first 10 min; for Locomotor activity, 20-10 min, mean / Vertical activity, 20-10 min, mean / Locomotor activity, 20-10 min / Vertical activity, 20-10 min: second 10 min interval; for Locomotor activity, 30-20 min, mean / Vertical activity, 30-20 min, mean / Locomotor activity, 30-20 min / Vertical activity, 30-20 min: third 10 min interval; for Locomotor activity, 10 min / Locomotor activity, 20 min / Vertical activity, 20 min / Locomotor activity, 30 min / Vertical activity, 30 min / Vertical activity, 10 min / Locomotor activity, 20-10 min / Vertical activity, 20-10 min / Locomotor activity, 30-20 min / Vertical activity, 30-20 min: individual rat, HCl; for Locomotor activity, 20-10 min / Vertical activity, 20-10 min / Locomotor activity, 30-20 min / Vertical activity, 30-20 min: non cumulative
Method: Evaluation of possible anti-bipolar effects of compounds 1 to 4 was effected by an amphetamine-induced hyperactivity model of mania in rats. Each of the compounds was examined in a separate experiment and compared with a control group, treated with the same dose of amphetamine.
Twenty Sprague Dawley rats, weighing 200-250 g served for each of the four (4) experiments. Rats were housed in a colony room with constant temperature (22° C.), 12 h light/dark cycle and free access to food and water. Each experiment consisted of two groups (n=10 per group), one group was treated with the compound (1 to 4) and the other with vehicle solution. In experiments 1-4, the drugs were administered intraperitoneally (IP). All experimental procedures were conducted during the light phase of the light/dark cycle.
Amphetamine (0.5 mg/kg, sub-cutaneous (s.c.), diluted in de-ionized water) was injected into all rats (both groups of each experiment) immediately prior to behavioral testing. In experiments 1 to 4, compounds (R)-N-acetyl aminoindan (1); (S)-N-indanyl glycinamide HCl (2); (rac)-N-(2-aminoacetyl)-1-aminoindan HCl (3); and (S)-N-formyl aminoindan (4) were injected twice intraperitoneally (IP) at a dose of 75 mg/kg, 19 h and 3 h prior to behavioral testing in experiments. All compounds were suspended in a 5% methyl cellulose solution. The vehicle solution was administered to the control animals.
Immediately after amphetamine injection, rats were placed in automated activity monitors and their activity levels were scored every 10 minutes in the 30 minute time span for experiments 1 to 4. Activity scores included separate measurements of horizontal (locomotion) and of vertical (rearing) activity.
Repeated ANOVA measurements were used to examine the effects of compounds 1 to 4 on locomotor and on vertical activity. One factor measured the treatment of the rats using compounds 1 to 4 or the control vehicle; the repeated measure factor was time (three 10 minute intervals). Post hoc LSD (least significant difference) tests were used to determine whether significant differences occurred in different time periods, where relevant.

SMILES	Effect on amphetamine-induced locomotor activity versus control (ANOVA)	Effect on amphetamine-induced vertical activity versus control (ANOVA)	Effect on activity levels of rats (summary)	Anti-manic potential from the tested model (conclusion)	Locomotor activity, 20 min, mean [counts]	Vertical activity, 20 min, mean [counts]	Locomotor activity, 30 min, mean [counts]	Vertical activity, 30 min, mean [counts]	Locomotor activity, 10 min, mean [counts]	Vertical activity, 10 min, mean [counts]	Locomotor activity, 20-10 min, mean [counts]	Vertical activity, 20-10 min, mean [counts]	Locomotor activity, 30-20 min, mean [counts]	Vertical activity, 30-20 min, mean [counts]	Locomotor activity, 10 min	Locomotor activity, 20 min	Vertical activity, 20 min	Locomotor activity, 30 min	Vertical activity, 30 min	Vertical activity, 10 min	other results
Cl.NCC(=O)N[C@H]1CCc2ccccc21 [Compound 2, (S)-N-indanyl glycinamide HCl]	did not have a significant effect	significantly increased the level of vertical activity	surprisingly increased activity	does not show anti-manic potential	1277.9	96.3	1740.5	125	626	49.3	651.9	47	462.6	28.7	531 counts and 603 counts and 604 counts and 619 counts and 663 counts (2×) and 616 counts and 670 counts and 643 counts and 648 counts	1096 counts and 1197 counts and 1334 counts and 1140 counts and 1525 counts and 1508 counts and 1366 counts and 1272 counts and 1325 counts and 1016 counts	51 counts and 133 counts and 62 counts and 84 counts and 101 counts and 236 counts and 118 counts and 50 counts and 70 counts and 58 counts	1547 counts and 1606 counts and 1964 counts and 1598 counts and 1908 counts and 2038 counts and 1670 counts and 1608 counts and 2047 counts and 1419 counts	75 counts and 168 counts and 98 counts and 96 counts and 104 counts and 321 counts and 126 counts and 58 counts and 116 counts and 88 counts	32 counts and 82 counts and 31 counts and 38 counts (3×) and 95 counts and 66 counts and 30 counts and 43 counts	Locomotor activity, 20-10 min: 565 counts and 594 counts and 730 counts and 521 counts and 862 counts and 892 counts and 696 counts and 629 counts and 677 counts and 353 counts; Vertical activity, 20-10 min: 19 counts and 51 counts and 31 counts and 46 counts and 63 counts and 141 counts and 52 counts and 12 counts and 40 counts and 15 counts; Locomotor activity, 30-20 min: 451 counts and 409 counts and 630 counts and 458 counts and 383 counts and 530 counts and 304 counts and 336 counts and 722 counts and 403 counts; Vertical activity, 30-20 min: 24 counts and 35 counts and 36 counts and 12 counts and 3 counts and 85 counts and 8 counts (2×) and 46 counts and 30 counts
Cl.NCC(=O)NC1CCc2ccccc21 (racemic) [Compound 3, (rac)-N-(2-aminoacetyl)-1-aminoindan HCl]	significantly reduced locomotor activity	similar, albeit non-significant, effect	reduced the activity levels	show anti-manic potential	1037	32	1397.4	48.3	494.4	23.1	542.6	8.9	360.4	16.3	379 counts and 525 counts and 338 counts and 553 counts and 449 counts and 349 counts and 584 counts and 614 counts and 537 counts and 616 counts	1214 counts and 1196 counts and 621 counts and 1303 counts and 862 counts and 663 counts and 1104 counts and 1349 counts and 1095 counts and 963 counts	0 counts and 33 counts and 11 counts and 91 counts and 26 counts and 5 counts and 66 counts (2×) and 1 counts and 21 counts	1678 counts and 1507 counts and 691 counts and 1619 counts and 1112 counts and 917 counts and 1576 counts and 1810 counts and 1758 counts and 1306 counts	1 counts and 35 counts (2×) and 11 counts and 101 counts and 5 counts and 75 counts and 100 counts and 38 counts and 82 counts	0 counts and 17 counts and 7 counts and 27 counts and 11 counts and 5 counts and 36 counts and 58 counts and 16 counts and 54 counts	Locomotor activity, 20-10 min: 835 counts and 671 counts and 283 counts and 750 counts and 413 counts and 314 counts and 520 counts and 735 counts and 558 counts and 347 counts; Vertical activity, 20-10 min: 0 counts (2×) and 16 counts and 4 counts and 64 counts and 15 counts and 30 counts and −57 counts and 5 counts and 12 counts; Locomotor activity, 30-20 min: 464 counts and 311 counts and 70 counts and 316 counts and 250 counts and 254 counts and 472 counts and 461 counts and 663 counts and 343 counts; Vertical activity, 30-20 min: 1 counts and 2 counts and 0 counts (2×) and 10 counts and 9 counts (2×) and 99 counts and 17 counts and 16 counts
